# “And” between values parts separate entries of the source, which are not always exact repeats. Identical values can stand only once.
# Test system: human erythrocytes
# Test: Untargeted metabolomics and 13C-glucose tracing of enolase inhibitor treated erythrocytes
# Assay type: cell-based
# Conditions: 6h
# Method: Freshly collected erythrocytes were washed, resuspended to 10% hematocrit in buffer [25mM HEPES (pH 7.4), 120mM NaCl, 5.4mM KCl, 1.8mM CaCl2, and 1mM NaH2PO4], incubated for 1 hour at 37°C, then centrifuged at 2000xg for 5 minutes at 4°C, resuspended in fresh wash buffer to 30-40% hematocrit, and split into 210µL aliquots of packed erythrocytes. […] All samples were incubated at 37°C shaking at 500 RPM. Triplicate samples of supernatants and packed erythrocytes were collected at 0, 0.5, 1, and 6-hour intervals and snap-frozen in liquid N2.
# RBC and media samples were extracted at 1:10 and 1:20 dilutions, respectively, in 5:3:2 MeOH : MeCN:H2O v/v/v, and supernatants analyzed on a Thermo Vanquish UHPLC coupled to a Thermo Q Exactive mass spectrometer, as extensively described ([Nemkov et al., 2015]; [Nemkov et al., 2017]). The extraction buffer was supplemented with 40uM 3-^13C lactate to allow absolute quantification of lactate isotopologues, including lactate generated via glycolysis ([1,2,3-^13C3] enriched) vs. the pentose phosphate pathway ([2,3-^13C2] enriched), as described ([Reisz et al., 2016]). Metabolite assignments, peak area integration and isotopologues distributions were determined using Maven (Princeton University) ([Nemkov et al., 2015]; [Nemkov et al., 2017]).
# Data were auto-scaled and normalized to zero-hour time points. Metabolites were removed from the dataset if greater than 50% of the samples contained missing values or the relative standard deviation among replicates exceeded 25%. Additionally, data was filtered using the interquartile range to reduce near-constant values from the experiment by 5%.
# A principal component analysis of preprocessed data was plotted with the 95% confidence interval minimum volume enclosing ellipsoid for each respective group (MetaboAnalyst, cluster, plotly). A two-way repeated measures analysis of variance (ANOVA) was performed with multiple comparisons corrected for using a false discovery rate p-value cutoff of 0.05. Metabolite-Pathway analysis was performed using the R package of MetaboAnalyst, as previously described ([Xia and Wishart, 2010]). Metabolite-Protein nodal analysis was performed using omicsnet.ca and as previously described ([Zhou and Xia, 2018]).
# [1] = treated erythrocytes, one value per replicate sample, polarity +
# [2] = treated erythrocytes, one value per replicate sample, polarity -
# [3] = treated erythrocytes, replicate samples
compound,measurement,setting,value
CC(C)(C)C(=O)OCOP(=O)(OCOC(=O)C(C)(C)C)C1CCCN(O)C1=O (stereo not shown) [POMHEX],AMP level (metabolomics signal),replicate samples,3.72E+05 and 4.97E+05 and 4.88E+05
same,ATP level (metabolomics signal),replicate samples,1.06E+05 and 4.51E+04 and 2.86E+04
same,Adenine level (metabolomics signal),replicate samples,1.10E+05 and 1.13E+05 and 1.03E+05
same,Cytosine level (metabolomics signal),replicate samples,0.00E+00
same,L-alanine level (metabolomics signal),replicate samples,7.74E+06 and 6.77E+06 and 7.99E+06
same,L-arginine level (metabolomics signal),replicate samples,4.96E+06 and 6.71E+06 and 3.72E+06
same,L-asparagine level (metabolomics signal),replicate samples,5.50E+06 and 5.88E+06 and 6.25E+06
same,L-aspartate level (metabolomics signal),replicate samples,1.08E+07 and 1.19E+07 and 1.12E+07
same,L-cysteine level (metabolomics signal),replicate samples,4.98E+05 and 5.97E+05 and 1.05E+06
same,L-glutamate level (metabolomics signal),replicate samples,5.99E+06 and 6.14E+06 and 6.66E+06
same,L-glutamine level (metabolomics signal),replicate samples,6.37E+07 and 6.26E+07 and 6.35E+07
same,L-histidine level (metabolomics signal),replicate samples,1.60E+06 and 1.47E+06 and 1.87E+06
same,L-isoleucine level (metabolomics signal),replicate samples,1.28E+07 and 1.42E+07 and 1.14E+07
same,L-leucine level (metabolomics signal),replicate samples,1.47E+08 (2×) and 1.27E+08
same,L-lysine level (metabolomics signal),replicate samples,1.47E+06 and 1.24E+06 and 1.45E+06
same,L-methionine level (metabolomics signal),replicate samples,1.56E+07 and 1.66E+07 and 1.27E+07
same,L-phenylalanine level (metabolomics signal),replicate samples,7.06E+06 and 6.50E+06 and 4.97E+06
same,L-proline level (metabolomics signal),replicate samples,6.39E+07 and 5.46E+07 and 5.96E+07
same,L-serine level (metabolomics signal),replicate samples,4.50E+06 and 4.60E+06 and 4.86E+06
same,L-threonine level (metabolomics signal),replicate samples,8.82E+06 and 8.15E+06 and 8.77E+06
same,L-tryptophan level (metabolomics signal),replicate samples,1.85E+06 and 1.63E+06 and 1.27E+06
same,L-tyrosine level (metabolomics signal),replicate samples,2.13E+07 and 2.30E+07 and 1.69E+07
same,L-valine level (metabolomics signal),replicate samples,1.59E+08 and 1.62E+08 and 1.47E+08
same,dCMP level (metabolomics signal),replicate samples,1.62E+04 and 1.66E+04 and 1.35E+04
same,dTMP level (metabolomics signal),replicate samples,1.10E+06 and 1.20E+06 and 9.63E+05
same,glycine level (metabolomics signal),replicate samples,1.51E+06 and 1.66E+06 and 1.67E+06
same,N-Acyl-D-aspartate (C06380) metabolite signal,[1],6.16E+04 and 5.50E+04 and 5.26E+04
same,Poly-gamma-D-glutamate (C05723) metabolite signal,[1],4.45E+07 and 4.25E+07 and 4.46E+07
same,D-Ribitol 5-phosphate (C01068) metabolite signal,[2],1.15E+04 and 2.30E+04 and 2.25E+04
same,"D-glucono-1,5-lactone (C00198) metabolite signal",[2],2.58E+05 and 2.64E+05 and 3.28E+05
same,L-Noradrenaline (C00547) metabolite signal,[2],2.02E+04 and 2.76E+04 and 1.70E+04
same,Oxalosuccinate (C05379) metabolite signal,[2],8.49E+04 and 8.94E+04 and 8.00E+04
same,Pyridoxamine (C00534) metabolite signal,[2],9.67E+03 and 8.58E+03 and 9.61E+03
same,Thioredoxin disulfide (C00343) metabolite signal,[2],2.29E+04 and 2.69E+04 and 2.77E+04
same,1-4-beta-D-Xylan (metabolite signal),[3],1.64E+05 and 1.40E+05 and 1.93E+05
same,2-Hydroxyglutarate/Citramalate (C02630) metabolite signal,[3],7.84E+04 and 5.75E+04 and 5.66E+04
same,5-6-Dihydrothymine (C00906) metabolite signal,[3],2.80E+05 and 2.87E+05 and 2.28E+05
same,5-10-Methenyltetrahydrofolate (metabolite signal),[3],1.54E+05 and 1.37E+05 and 1.05E+05
same,5-Hydroxyisourate (C11821) metabolite signal,[3],4.81E+06 and 4.49E+06 and 3.27E+06
same,5-L-Glutamyl-taurine (metabolite signal),[3],1.49E+05 and 1.28E+05 and 1.35E+05
same,5-Oxoproline (metabolite signal),[3],8.83E+05 and 1.09E+06 and 7.57E+05
same,(S)(+)-Allantoin (C02350) metabolite signal,[3],7.40E+03 and 8.26E+03 and 9.04E+03
same,Allantoate (C00499) metabolite signal,[3],5.78E+05 and 5.92E+05 and 8.52E+05
same,Ascorbate (metabolite signal),[3],7.64E+04 and 9.21E+04 and 9.25E+04
same,CMP-N-acetylneuraminate (metabolite signal),[3],2.55E+04 and 6.91E+03 and 6.08E+03
same,Carnosine (metabolite signal),[3],1.46E+05 and 1.52E+05 and 1.15E+05
same,Citrate (C00158) metabolite signal,[3],2.76E+04 and 1.91E+04 and 1.57E+04
same,Creatine (metabolite signal),[3],1.37E+08 and 1.42E+08 and 1.27E+08
same,Creatinine (metabolite signal),[3],2.18E+06 and 2.32E+06 and 1.85E+06
same,Cys-Gly (metabolite signal),[3],7.81E+05 and 5.57E+05 and 7.70E+05
same,D-Glucosamine (metabolite signal),[3],3.33E+05 and 2.53E+05 and 2.71E+05
same,D-Glucose (C00031) metabolite signal,[3],3.99E+06 and 4.57E+06 and 4.90E+06
same,D-Ribose (C00121) metabolite signal,[3],1.11E+05 and 8.97E+04 and 8.43E+04
same,Dehydroascorbate (metabolite signal),[3],3.57E+04 and 4.39E+04 and 4.65E+04
same,Dihydrofolate (metabolite signal),[3],1.44E+06 and 1.74E+06 and 1.87E+06
same,Dimethylglycine (metabolite signal),[3],6.87E+05 and 6.86E+05 and 5.98E+05
same,Diphosphate (C00013) metabolite signal,[3],2.84E+04 and 3.52E+04 and 3.86E+04
same,Fumarate (C00122) metabolite signal,[3],9.00E+04 and 7.84E+04 and 7.19E+04
same,Glutathione (C00051) metabolite signal,[3],4.59E+07 and 3.87E+07 and 4.33E+07
same,Glutathione disulfide (metabolite signal),[3],3.00E+05 and 9.38E+04 and 7.81E+04
same,Hypoxanthine (C00262) metabolite signal,[3],7.14E+03 and 5.93E+03 and 0.00E+00
same,IMP (C00130) metabolite signal,[3],4.51E+04 and 3.74E+04 and 4.61E+04
same,Inosine (C00294) metabolite signal,[3],6.84E+04 and 6.73E+04 and 4.20E+04
same,L-Citrulline (metabolite signal),[3],2.71E+06 and 3.04E+06 and 2.48E+06
same,L-Homoserine (metabolite signal),[3],2.62E+05 and 3.31E+05 and 2.39E+05
same,Lactate (C01432) metabolite signal,[3],1.75E+07 and 2.07E+07 and 1.43E+07
same,Malate (C00149) metabolite signal,[3],1.61E+05 and 9.39E+04 and 7.61E+04
same,Mannitol (C00392) metabolite signal,[3],1.83E+05 and 1.22E+05 and 1.51E+05
same,N-Acetylneuraminate (metabolite signal),[3],1.66E+04 and 1.46E+04 and 8.13E+03
same,N-Glycoloyl-neuraminate (metabolite signal),[3],7.64E+04 and 8.68E+04 and 1.14E+05
same,NAD+ (C00003) metabolite signal,[3],5.29E+04 and 5.95E+04 and 9.85E+04
same,Nicotinamide (C00153) metabolite signal,[3],2.02E+07 and 2.16E+07 and 1.82E+07
same,Ornithine (metabolite signal),[3],1.75E+06 and 1.63E+06 and 1.64E+06
same,Oxaloacetate (C00036) metabolite signal,[3],3.72E+04 and 4.43E+04 and 3.47E+04
same,Phosphoserine (metabolite signal),[3],2.32E+04 and 2.57E+04 and 1.04E+04
same,Putrescine (metabolite signal),[3],4.24E+04 and 2.70E+04 and 3.11E+04
same,Pyridoxal (C00250) metabolite signal,[3],4.26E+04 and 5.24E+04 and 7.64E+04
same,Pyruvate (C00022) metabolite signal,[3],2.17E+06 (2×) and 1.35E+06
same,S-Glutathionyl-L-cysteine (metabolite signal),[3],2.24E+05 and 8.00E+04 and 6.92E+04
same,Sedoheptulose 1-phosphate (C06222) metabolite signal,[3],2.39E+04 and 1.32E+04 and 9.55E+03
same,Spermidine (metabolite signal),[3],6.66E+06 and 5.53E+06 and 5.68E+06
same,Spermine (metabolite signal),[3],8.48E+06 and 7.61E+06 and 6.89E+06
same,Succinate (C00042) metabolite signal,[3],3.87E+04 and 5.97E+04 and 7.05E+04
same,Thymidine (C00214) metabolite signal,[3],1.24E+04 and 9.43E+03 and 3.23E+03
same,UDP (C00015) metabolite signal,[3],8.83E+04 and 9.94E+04 and 8.18E+04
same,UDP-N-acetyl-D-glucosamine (metabolite signal),[3],8.06E+03 and 2.61E+03 and 5.41E+03
same,UDP-glucose (C00029) metabolite signal,[3],9.76E+03 and 1.91E+03 and 5.75E+03
same,Urate (C00366) metabolite signal,[3],3.58E+04 and 2.84E+04 and 2.03E+04
same,Xanthine (C00385) metabolite signal,[3],7.82E+04 and 7.20E+04 and 8.31E+04
same,alpha-D-Glucosamine 1-phosphate (metabolite signal),[3],9.63E+05 and 8.22E+05 and 5.48E+05
same,alpha-D-Ribose 1-phosphate (C00620) metabolite signal,[3],4.34E+04 and 2.92E+04 and 1.97E+04
same,gamma-Glutamyl-gamma-aminobutyrate (metabolite signal),[3],5.87E+04 and 5.26E+04 and 3.36E+04
same,gamma-L-Glutamyl-D-alanine (metabolite signal),[3],4.70E+04 and 4.49E+04 and 2.74E+04
same,gamma-L-Glutamyl-L-cysteine (metabolite signal),[3],4.20E+04 and 3.03E+04 and 3.96E+04

# — PMC8482815, “Targeting Host Glycolysis as a Strategy for Antimalarial Development” (Frontiers in Cellular and Infection Microbiology, 2021)
